Like-named read-outs stand apart in the source and are kept apart here.
Columns and labels:
[1] = test system: previously treated advanced non-small cell lung cancer (NSCLC)
Procedure: In the initial stage, we assessed the feasibility of intrapatient dose escalation from 150 mg per day to a maximal level of tolerable skin toxicity, which was defined as the TR. This objective was determined to be feasible if patients developed a TR in the absence of non-cutaneous dose-limiting toxicity (DLT). […] Skin toxicity was graded according to the following scale that was based on patient tolerability:
In the absence of both a TR and non-cutaneous DLT, the dose was increased in each patient to 200 mg per day, and then in 25 mg per day increments every 14 days. […] Toxicities were graded according to the National Cancer Institute Common Toxicity Criteria (NCI CTC), Version 2.0, except for skin toxicity.
Tumour assessments were performed using the Response Evaluation Criteria in Solid Tumours using computerised tomographic scanning or magnetic resonance imaging pretreatment and every 6–8 weeks during treatment ([Therasse et al, 2000]).

[2] = in vivo
Source text: (§1) PK parameters were estimated by non-compartmental methods (WinNonlin v.3.1, Pharsight Corp., Mountain View, CA, USA).

clinical = conditions: human, in vivo
Source text: as §1

[3] = Plasma pharmacokinetics of erlotinib and OSI-420 (HPLC, non-compartmental); conditions: erlotinib dose 425 mg m^−2, 1 patient;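 also: pharmacokinetic parameters derived by non-compartmental analysis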
Source text: as §1

Compound: C#Cc1cccc(Nc2ncnc3cc(OCCOC)c(OCCOC)cc23)c1 [erlotinib]
- Disease control (CR+PR+SD): No. of patients with CR+PR+s.d./total no. of patients ([1]; All patients): 24/42
- Disease control (CR+PR+SD): Response rate (95% CI) ([1]; All patients): 57.1 (41.0, 72.3)
- Objective responses (CR+PR): No. of patients with PR+CR/total no. of patients ([1]; All patients): 5/42
- Objective responses (CR+PR): Response rate (95% CI) ([1]; All patients): 11.9 (4.0, 25.6)
- Disease control (CR+PR+SD): No. of patients with CR+PR+s.d./total no. of patients ([1]; Target rash feasible): 15/24
- Disease control (CR+PR+SD): Response rate (95% CI) ([1]; Target rash feasible): 62.5 (40.6, 81.2)
- Objective responses (CR+PR): No. of patients with PR+CR/total no. of patients ([1]; Target rash feasible): 5/24
- Objective responses (CR+PR): Response rate (95% CI) ([1]; Target rash feasible): 20.8 (7.1, 42.2)
- Disease control (CR+PR+SD): No. of patients with CR+PR+s.d./total no. of patients ([1]; Target rash not feasible): 9/18
- Disease control (CR+PR+SD): Response rate (95% CI) ([1]; Target rash not feasible): 50.0 (26.0, 74.0)
- Objective responses (CR+PR): No. of patients with PR+CR/total no. of patients ([1]; Target rash not feasible): 0/18
- Objective responses (CR+PR): Response rate (95% CI) ([1]; Target rash not feasible): 0.0 (N/A)
- Median progression-free survival (PFS) ([1]; all patients, 95% CI: 1.61–4.14): 2.3 months
- Patients with a partial response (PR) ([1]; five of 42 patients, 95% CI: 4.0–25.6): 12%
- Median time to initial response ([1]; five patients with PR, range, 5–76): 6 weeks
- Patients with stable disease ([1]; nineteen of 42 patients): 45%
- Median PFS ([1]; patients who did not experience a TR, 95% CI: 1.54, 4.14): 1.9 months
- Median PFS ([1]; patients who experienced a TR, 95% CI: 1.61, 6.97): 3.5 months
- Reduction in the risk of disease progression or death ([1]; patients who had TR): 49%
- PFS ([1]; patients with PR as best response, range, 5.2 to 66+): 12 months
- PFS ([1]; patients with SD as best response, range, 1.2–14.0): 4.7 months
- PFS ([1]; patients with progressive disease as best response, range, 1.2–1.9): 1.4 months
- Relationships between dose and both AUC0–24 and Cmax (Spearman rank correlation) ([2]; human): did not reveal any significant deviation from dose proportionality
- Interpatient and intrapatient variability of PK [2]: High
- Cmax (clinical; 150 mg): 1910 ng/mL
- Tmax (clinical; 150 mg): 2 h
- Cmax (clinical; 200 mg): 2650 ng/mL
- Tmax (clinical; 200 mg): 2 h
- Cmax (clinical; 225 mg): 2540 ng/mL
- Tmax (clinical; 225 mg): 2 h
- Cmax (clinical; 250 mg): 2820 ng/mL
- Tmax (clinical; 250 mg): 2.1 h
- Cmax (clinical; 275 mg): 2190 ng/mL
- Tmax (clinical; 275 mg): 1 h
- Cmax (clinical; 300 mg): 2940 ng/mL
- Tmax (clinical; 300 mg): 2 h
- Cmax (clinical; 325 mg): 2800 ng/mL
- Cmax (clinical; 350 mg): 1780 ng/mL
- Tmax (clinical; 350 mg): 3.5 h
- Cmax (clinical; 375 mg): 2770 ng/mL
- Tmax (clinical; 375 mg): 1 h
- Tmax (clinical; 400 mg): 2 h
- Cmax (clinical; 425 mg): 2780 ng/mL
- Cmax (clinical; 450 mg): 4100 ng/mL
- Tmax (clinical; 450 mg): 8 h
- Cmax (clinical; 475 mg): 2200 ng/mL
- Tmax (clinical; 475 mg): 4.2 h
- Erlotinib Tmax [3]: 4.0 h

— paper PMC3185947 (British Journal of Cancer, 2011)
